Assay results published in patent publication US6337314B1, “Mammalian-derived peptides for the treatment of microbial infections” (Theragem, Inc., priority 1997, dated 2002).
Read-outs that look alike come from different tables or passages of the source. Marks after values point to notes of the source that are not given here. No end group written: not given here.

How the values were obtained:
Format in all cases: cell-based
[1] = test system: Escherichia coli MC4100
Source text: (§1) Staphylococcus aureus was strain RN6390, Pseudomonas aeruginosa was strain PA01, Escherichia coli was strain MC4100, Streptococcus faecalis was ATCC 8043 and Candida albicans was a clinical isolate from the Presbyterian Hospital.
D. Radial diffusion assay for antibiotic activity against Escherichia coli MC4100
A single colony of Escherichia coli MC4100 is inoculated into trypicase soy broth and grown to mid-exponential phase (OD600−0.7). The cultures are washed in NaPB pH 5.5 and dissolved to a final concentration of 5×10^7CFU/ml. A 0.2 ml aliquot of this bacterial suspension (10^7CFU/ml) is added to 10 ml of autoclaved and cooled (to 42° C.) NaPB containing 0.02% Bovine Serum Albumin (BSA) and 0.02% Triton X100., 1% w/v of low electroendosmosis type agarose (Sigma). After mixing the bacteria in, the agarose is poured into Lab-Tek square Petri dishes to form a uniform thick layer. Wells with a 2.7 mm diameter are punched in and filled with 4.5 ul of control or sample, the plates are incubated for 3 hours at 37° C., and overlaid with 10 ml of sterile agar maintained at 42° C. The overlay agar is 6% (w/v) TSB and 1% w/v Bacto-agar. After incubation for 18-24 hours at 37° C., the diameter of the clear zone surrounding the wells containing an antibacterial agent is measured.
(§2) Measurement of the antimicrobial activity of human hemoglobin, its heme-free α and β chains, CNBr-derived fragments of the α and β chains, and synthetic peptides derived therefrom were determined by radial diffusion assay and in some cases by plate assay. […] MIC is estimated by linear extrapolation of data points to an intercept with the x axis.
(§3) Each assay was performed with 3 experimental runs except where indicated. […] The assay method was patterned after that of Lee et al (23).

[2] = test system: Candida albicans
Procedure: as §1
B. Radial diffusion assay
The fungus is grown for 3 hrs from an overnight culture in Sabouraud dextrose broth, centrifuged at 10,000 g for 10 min, washed twice in NaPB pH 5.5, and resuspended in NaPB (pH 5.5) at a final concentration of 4×10^7/ml. A 0.1 ml aliquot of this fungal suspension (4×10^6 CFU) is added to 10 ml of autoclaved and cooled to (42° C.) NaPB pH 5.5 containing 1% w/v of low electroendosmosis type agarose (Sigma). After mixing the fungus in, the agar is poured into Lab-Tek square Petri dishes to form a uniform 1 mm thick layer. Wells with a 3 mm diameter are punched in and filled with 5 μl of control or sample, the plates are incubated for 3 hrs at 37° C. and overlaid with 10 ml of sterile agar maintained at 42° C. The overlay agar is 2× Sabouraud agar. After incubation of 18-24 hrs at 37° C., the diameter of the clear zone surrounding the wells containing an antifungal agent is measured.
as §2, §3

[3] = test system: Staphylococcus aureus RN6390; experiment: Radial diffusion assay for antibiotic activity against Staphylococcus aureus RN6390; details: pH 5.5, radial diffusion
Source text: Staphylococcus aureus was strain RN6390, Pseudomonas aeruginosa was strain PA01, Escherichia coli was strain MC4100, Streptococcus faecalis was ATCC 8043 and Candida albicans was a clinical isolate from the Presbyterian Hospital. B. Radial diffusion assay for antibiotic activity against Staphylococcus aureus RN6390 A single colony of Staphylococcus aureus RN6390 is inoculated into CYGP broth and grown to mid-exponential phase (OD600=0.7). The cultures are washed in NaPB pH 5.5 and dissolved to a final concentration of 5×10^7 CFU/ml. A 0.2 ml aliquot of this bacterial suspension (10^7 CFU) is added to 10 ml of autoclaved and cooled (to 42° C.) NaPB buffer, 1% w/v of low electroendosmosis type agarose (Sigma). After mixing the bacteria in, the agarose is poured in Lab-Tek square Petri dishes to form a uniform thick layer. Wells with a 2.7 mm diameter are punched in and filled with 4.5 ul of control or sample, the plates are incubated for 3 hours at 37° C., and overlaid with 10 ml of sterile agar maintained at 42° C. The overlay agar is 2× CYGP broth and 1% w/v Bacto-agar. After incubation for 18-24 hours at 37° C., the diameter of the clear zone surrounding the wells containing an antibacterial agent is measured. Measurement of the antimicrobial activity of human hemoglobin, its heme-free α and β chains, CNBr-derived fragments of the α and β chains, and synthetic peptides derived therefrom were determined by radial diffusion assay and in some cases by plate assay. […] MIC is estimated by linear extrapolation of data points to an intercept with the x axis. Each assay was performed with 3 experimental runs except where indicated. The radial diffusion assay is reliable and gives consistent results when used with the purified or semipurified compositions of the invention. The assay method was patterned after that of Lee et al (23).

[4] = test system: Pseudomonas aeroginosa PA01; experiment: Radial diffusion assay for antibiotic activity against Pseudomonas aeroginosa PA01; details: Pseudomonas aeruginosa
Procedure: Staphylococcus aureus was strain RN6390, Pseudomonas aeruginosa was strain PA01, Escherichia coli was strain MC4100, Streptococcus faecalis was ATCC 8043 and Candida albicans was a clinical isolate from the Presbyterian Hospital. C. Radial diffusion assay for antibiotic activity against Pseudomonas aeroginosa PA01 A single colony of Pseudomonas aeroginosa PA01 is inoculated into trypticase soy broth and grown to mid-exponential phase (OD600−0.7). […] A 0.2 ml aliquot of this bacterial suspension (10^7CFU/ml) is added to 10 ml of autoclaved and cooled (to 42° C.) NaPB buffer, 1% w/v of low electroendosmosis type agarose (Sigma). After mixing the bacteria in, the agarose is poured in Lab-Tek square Petri dishes to form a uniform thick layer. Wells with a 2.7 mm diameter are punched in and filled with 4.5 ul of control or sample, the plates are incubated for 3 hours at 37° C., and overlaid with 10 ml of sterile agar maintained at 42° C. The overlay agar is 6% (w/v) TSB and 1% w/v Bacto-agar. After incubation for 18-24 hours at37° C., the diameter of the clear zone surrounding the wells containing an antibacterial agent is measured. Measurement of the antimicrobial activity of human hemoglobin, its heme-free α and β chains, CNBr-derived fragments of the α and β chains, and synthetic peptides derived therefrom were determined by radial diffusion assay and in some cases by plate assay. […] MIC is estimated by linear extrapolation of data points to an intercept with the x axis. Each assay was performed with 3 experimental runs except where indicated. The radial diffusion assay is reliable and gives consistent results when used with the purified or semipurified compositions of the invention. The assay method was patterned after that of Lee et al (23).

[5] = test system: Streptococcus faecalis ATCC 8043; experiment: Radial diffusion assay for antibiotic activity against Streptococcus faecalis ATCC 8043
Procedure: as §1
E. Radial diffusion assay for antibiotic activity against Streptococcus faecalis ATCC 8043
A single colony is inoculated in 10 mL of TSB overnight shaking at 37C. Approximately 0.3 ml is added to 10 mL fresh TSB and shaken at 37° C. This is allowed to grow to mid-log phase (OD600=0.6). The culture is washed 2× in NaPB pH 5.5 by spinning at 5000 rpm. for 10 min. OD is rechecked after washing to determine exact bacterial concentration. The washed bacteria are added at a concentration of 10^7/plate to the lower layer (NaPB pH 5.5/1% Low Electroendosmosis agarose). Dilutions of Hemoglobin dilutions in NaPB pH 5.5 are added to the plate, allowed to diffuse in the layer, and incubated in wet box at 37C for 3 hours. Following the incubation, 10 mL of nutrient medium, 6% TSB and 1% Bactoagar, is added as a top layer and plates are incubated in the wet box overnight at […].
as §2
Each assay was performed with 3 experimental runs except where indicated. The radial diffusion assay is reliable and gives consistent results when used with the purified or semipurified compositions of the invention. The assay method was patterned after that of Lee et al (23).

[6] = test system: Escherichia coli MC4100; details: pH 7.4, radial diffusion
[7] = Escherichia coli, Table 2 CNBr cleavage products, pH not given in table (method NaPB pH 5.5)
[8] = Candida albicans, pH 5.5, radial diffusion
[9] = Escherichia coli, pH 5.5, radial diffusion
[10] = Streptococcus faecalis, pH 5.5, radial diffusion
[11] = Streptacoccus faecalis, Table 2 CNBr cleavage products, pH not given in table (method NaPB pH 5.5)
[12] = Candida albicans, Table 2 CNBr cleavage products, pH not given in table (method NaPB pH 5.5)

Substance | Minimum Inhibitory Concentration (MIC) [1, 7] [µg/mL] | Minimum Inhibitory Concentration (MIC) [2, 8] [µg/mL] | Minimum Inhibitory Concentration (MIC) [1, 9] [µg/mL] | Minimum Inhibitory Concentration (MIC) [3] [µg/mL] | Minimum Inhibitory Concentration (MIC) ([4]; pH 5.5, radial diffusion) [µg/mL] | Minimum Inhibitory Concentration (MIC) [5, 10] | Minimum Inhibitory Concentration (MIC) [5, 11] [µg/mL] | Minimum Inhibitory Concentration (MIC) [2, 12] [µg/mL] | other results
α-2: CNBr cleavage fragment of human hemoglobin α chain, residues 33-76, SEQ ID NO:8 | >100 | – | – | – | – | – | – | – | –
α chains: Heme-free α chain of human hemoglobin, 141 amino acid residues, SEQ ID NO:10, separated by C4 reverse-phase HPLC | – | 7 | 1 to 2 | 300 | 50 | 3* μg/ml | – | – | –
α-1: CNBr cleavage fragment of human hemoglobin α chain, residues 1-32, SEQ ID NO:7 | >100 | – | – | – | – | – | 100 | – | –
β chains: Heme-free β chain of human hemoglobin, 146 amino acid residues, SEQ ID NO:1, separated by C4 reverse-phase HPLC | – | >50 | 1.5 to 5 | 10 | 40 to 60 | 20 µg/mL | – | – | Minimum Inhibitory Concentration (MIC) [6]: 10 to 30 µg/mL
Hemoglobin: Human hemoglobin (MW=64,500), two α and two β chains with four heme groups; crude Hb purchased from Sigma Chemicals | – | 50 to 70 | 1 to 5 | 4 to 6 | 5 | 200 to 1000 µg/mL | – | – | Minimum Inhibitory Concentration (MIC) ([4]; pH 7.4, radial diffusion): 50 µg/mL; Minimum Inhibitory Concentration (MIC) [6]: 35 to 100 µg/mL
β-1: CNBr cleavage fragment of human hemoglobin β chain, residues 1-55, SEQ ID NO:9 | >100 | – | – | – | – | – | >50 | 25 | –
β-2: CNBr cleavage fragment of human hemoglobin β chain, residues 56-146, SEQ ID NO:2 | 5 | – | – | – | – | – | 8 | 25 | activity against C. albicans (in words) ([2]; C. albicans): highly active; activity against E. coli (in words) ([1]; E. coli): highly active
α-3: CNBr cleavage fragment of human hemoglobin α chain, residues 77-141, SEQ ID NO:3 | 5 to 8 | – | – | – | – | – | 7 | 10 to 50 | –
GNPKVKAHGKKVLGAFS [Peptide I] | – | – | – | – | – | – | – | – | Minimum Inhibitory Concentration (MIC) ([2]; 3 h, pH 5.5): 10 µg/mL; Minimum Inhibitory Concentration (MIC) ([1]; MC4100, pH 5.5): 15 µg/mL
